Source: the METLIN SMRT retention time set (Domingo-Almenara et al. 2019)

Experiment: gradient 5% acetonitrile 3 min, to 50% in 2 min, to 85% in 15 min, held 3 min, 100 µL/min
Settings: column: Zorbax Extend-C18 2.1 x 50 mm; eluents: water / acetonitrile, 0.1% formic acid
Procedure, shortened: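 Values are retention times taken from adduct peaks that software picked and an analyst inspected. The pure standards were run as mixtures of ~100 molecules on HPLC linked to a quadrupole time-of-flight mass spectrometer, in positive and negative ionization mode. A Zorbax Extend-C18 column (2.1 × 50 mm, 1.8 μm) was used at 100 μL/min with water and acetonitrile, each including 0.1% formic acid.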

Compound	RP-LC retention time
CN1C(=O)c2cccnc2Sc2cc(NC(=O)c3ccc(F)cc3Cl)ccc21	796 s
COc1ccccc1N(CN1CCCC1=O)C(=O)COc1ccccc1	699 s
COc1ccc(OCc2nc(-c3cccc(-c4ccnn4C)c3)no2)cc1	1010 s
CN(Cc1ccccc1)C(=O)c1cc2c(n1C)CCN(Cc1cccc(F)c1)C2	681 s
Cc1cc(Cl)ccc1N1C(=O)CN(S(C)(=O)=O)CC1(C)C(=O)NC1CCCCC1 (stereo unspecified)	900 s
CC1(C(=O)NC2CCCC2)Cn2cnc(C(=O)NCc3ccc(F)cc3)c2C(=O)N1C1CC1 (stereo unspecified)	759 s
CS(=O)(=O)N1CCC(CNC(=O)c2cc(-c3ccccc3)on2)CC1	750 s
Cc1cccc(-c2noc(Cn3ncn4nc(-c5ccc(C)cc5C)cc4c3=O)n2)c1	878 s
O=C(Cn1nc(N2CCSCC2)c2ccccc2c1=O)Nc1cccc(Br)c1	1030 s
O=C(Nc1cnn(-c2ncc(N3CCCCC3)cn2)c1)c1ccc(C(F)(F)F)cc1	1010 s
O=C(NCc1ccco1)c1ccc2c(c1)N(Cc1ccccc1)C(=O)CO2	942 s
NC(=O)C1CCN(C(=O)c2ccc3c(c2)CCCN3S(=O)(=O)c2ccc(Cl)cc2)CC1	741 s
COc1ccc(OC)c2[nH]c(C(=O)N3CCCC3)cc12	823 s
COc1ccc(NC(=O)C2(C)Oc3cccnc3N(C)C2=O)cc1Cl (stereo unspecified)	842 s
COc1ccccc1NC(=O)N1CCOc2ccc(Cl)cc21	1050 s
CCN(CCN(C)C)C(=O)c1cc2c(s1)-c1ccc(Cl)cc1S(=O)(=O)C2	660 s
CC(C)OC(=O)Cn1nc(-c2nc(-c3ccc(Cl)cc3)no2)ccc1=O	1080 s
O=C(Cn1nc(N2CCOCC2)c2ccccc2c1=O)Nc1ccc(F)cc1	839 s
COc1ccc(/C=C/c2nc(-c3cccc(-c4ccnn4C)c3)no2)cc1OC	1050 s
COc1ccc2c(c1)OC1(C)CC2C(S(=O)(=O)c2ccc(C)cc2)C(=O)N1 (stereo unspecified)	877 s
Cc1ccc(C(=O)Nc2nccnc2C(=O)N2CCC3(CC2)OCCO3)cc1	724 s
Cc1cccc(S(=O)(=O)N2CCCN(c3ccc(=O)n(-c4ccccc4)n3)CC2)c1	866 s

Compound	RP-LC retention time
O=C(NCC#CCN1CCc2ccccc2C1)c1ccc2cc[nH]c2c1	579 s
O=C(CN1CCc2[nH]c3c(F)c(Cl)ccc3c(=O)c2C1)NCc1ccc2c(c1)OCO2	661 s
COC(=O)c1[nH]c(C)c(C(=O)C(C)N(CC2CCCCC2)C(=O)c2ccc(F)cc2)c1C (stereo unspecified)	1080 s
COCCCN1C(=O)CSc2c(c3ccccc3n2C)C1C(=O)NCc1ccccc1OC (stereo unspecified)	893 s
COc1ccc(-c2ncc3c(n2)CCN(S(=O)(=O)c2cccc(Cl)c2C)C3)cc1	1180 s
Cc1ccc(S(=O)(=O)C2=C(O)C(=O)N(Cc3ccco3)C2c2ccc(F)cc2)cc1 (stereo unspecified)	931 s
COc1ccc(CNC(=O)CN2C(=O)NC3(CCCCC3)C2=O)cc1OC	659 s
COc1cccc(NC(=O)CN2CCc3[nH]c4c(OC)ccc(Cl)c4c(=O)c3C2)c1	610 s
Cn1c(=O)n(Cc2ccccc2)c(=O)c2c1nc(N1CCNCC1)n2Cc1ccccc1	672 s
CSc1ccc(NC(=O)c2cn3c(n2)CCCC3)cc1	624 s
COC(=O)c1cn(Cc2cccc(C)c2)c2nc(C)ccc2c1=O	854 s
CC(C)(C)NC(=O)N1CCC(CNC(=O)c2ccsc2)CC1	657 s
CCOc1ccccc1N(C)C(=O)Cc1c(C(=O)O)c(C)cn1C	773 s
CCOc1cc(=O)n2c(c1C(=O)Nc1cc(F)ccc1F)CCCC2	748 s
CCCCn1cc(S(=O)(=O)Nc2cccc(Cl)c2)c2cccnc21	1020 s
O=C(NC1CC1)c1ccc(OCC2CCCN(C(=O)c3ccc(F)cc3F)C2)cc1 (stereo unspecified)	848 s
CN1CCN(CCNC(=O)c2ccc3c(c2)nnn3Cc2ccc(F)cc2)CC1	591 s
CCCN1CCN(C(=O)c2cccn2Cc2noc(-c3ccccc3)n2)CC1	653 s
O=C(NCCc1ccccc1)C(=O)NCC(c1ccc2c(c1)OCO2)N1CCOCC1 (stereo unspecified)	672 s
Cc1noc2nc(CCC(=O)NCc3ccc(F)cc3Cl)nc(N3CCOCC3)c12	666 s
c1ccc(CN2CCN(Cc3cnoc3-c3ccccc3)CC2)cc1	689 s
CN(C)Cc1c(C(=O)NCCOc2ccc(C(=O)NO)cc2)oc2ccccc12	628 s

Compound	RP-LC retention time
Cc1cnn(CC(=O)N2CCc3nn(C)c(=O)n3CC2)c1	577 s
O=c1n(Cc2ccccc2)nc2n1CCN(S(=O)(=O)Cc1ccccc1)CC2	816 s
O=C(CSc1nnc2c3sc(N4CCCC4)nc3ncn12)NC1CCCCC1	767 s
O=C(NCCc1cccs1)C1CCCN(C(=O)c2cccn2-c2cccnc2)C1 (stereo unspecified)	848 s
CCCS(=O)(=O)NCc1ccc2c(c1)CCN2C(=O)c1ccccc1	810 s
O=C(NCC1CCCO1)C1CCN(c2ncccc2-c2nc(-c3ccccc3)no2)CC1 (stereo unspecified)	870 s
CCOc1ccccc1CNC(=O)CN1CCN(Cc2ccccc2)C1=O	848 s
COc1ccccc1-c1csc(NC(=O)c2sc(COc3cccc(C)c3)nc2C)n1	1250 s
COc1ccc(OC)c(S(=O)(=O)NC2CCc3nn(CC4CC4)c(=O)n3CC2)c1 (stereo unspecified)	707 s
Cc1cc(F)ccc1NC(=O)Cn1c(C)cc(-c2nnc(C3CCC3)o2)c1C	934 s
CSc1ccc(-c2nc3cc(C)ccn3c2Nc2ccc3c(c2)OCCO3)cc1	719 s
Cc1ccc(-c2cn3cccc(C)c3n2)cc1NS(=O)(=O)c1ccc(Br)cc1	737 s
CN1C(=O)c2cccc(NC(=O)C3COc4ccccc4O3)c2C1=O (stereo unspecified)	913 s
CC1Oc2ccc(-c3csc(NC(=O)c4cccc(Br)c4)n3)cc2NC1=O (stereo unspecified)	995 s
CCc1cc(C(=O)NCc2ccccc2Cl)nc2ccnn12	1000 s
CCc1ccccc1N(C)S(=O)(=O)c1ccccc1-c1nc(-c2ccccc2)no1	1270 s
Cc1cccc2nnc(N3CCCC(C(=O)Nc4ccc(N5CCOCC5)cc4)C3)n12 (stereo unspecified)	625 s
O=C(Cn1cccn1)N1CCCC(COCc2ccccc2)C1 (stereo unspecified)	709 s
Cc1nc(-n2nc(C)c(CC(=O)N3CCCCCC3)c2C)sc1C	1010 s
COc1ccc2c(c1)C1(CCN(C(=O)Cc3ccccc3Cl)C1)C(=O)N2C (stereo unspecified)	848 s
CC(C)NC(=O)N1CCCC(c2cccc(C(=O)NCc3ccc4c(c3)OCO4)c2)C1 (stereo unspecified)	822 s
CCNC(=O)c1sc(Nc2cccc(C)n2)nc1C	657 s
